Experimental data: patent US4328235A, “Suppressing pain with benzothiazol-2(3H)-ones” (Boehringer Ingelheim GmbH, priority 1979, dated 1982)
Like-named read-outs stand apart in the source and are kept apart here.

Experiments:
[1] = test system: Sensitivity of the Mouse in the Hot Plate Test; assay: Hot plate test (sensitivity of the mouse, increase of reaction time); format: in vivo; conditions: po, read-out: ED100 (dose which increased the time of reaction by 100%)
Procedure: The test substances were administered as trituration in 1% methyl cellulose (0.1 ml/10 g of mouse) by means of an oesophageal tube.
Before treatment with the test substances, the animals were twice put on the hot plate at an interval of 30 minutes, whereby their individual times of reaction were measured. After treatment with a test substance, the times of reaction of the animals were again measured in an interval of 30 minutes.

[2] = test system: body temperature of Chbb:THOM-rats; assay: Antipyretic activity (rectal body temperature of rats); format: in vivo, rat; conditions: for ED (-1.5 degC): Rattus norvegicus, po, read-out: ED-1.5° C. (dose which decreases the body temperature by 1.5° C.)
Procedure: The test substances were administered as a trituration in a 1% methyl cellulose in portions of 1.0 ml/100 g of animal using an oesophageal tube.
From the values for the average maximum decline of temperature, which were gained after the administration of the different doses of the test substances, and after a linear regression analysis according to LINDER, an ED-1.5° C. was calculated with the confidence limits according to FIELLER as the dose which decreases the body temperature by 1.5° C.

[3] = test system: Pain of Inflammation on the Back Paw of the Rat; assay: Randall-Selitto test (pain of inflammation, yeast oedema, back paw of the rat); format: in vivo; conditions: po, 0.75 h, read-out: ED50 (dose which increased the pain threshold by 50%)
Procedure: The activity against the pain caused by inflammation was tested according to the method of RANDALL-SELITTO [Arch. Int. […] After a further 45 minutes the pain threshold was determined in the animals treated with the test compound and in the control animals treated only with the vehicle.

Acute toxicity in mice = conditions: mouse, in vivo, po; Chbb-NMRI (SPF)-mice of both sexes, oesophageal tube, deaths within 14 days
Procedure: The acute toxicity was determined in Chbb-NMRI (SPF)-mice of both sexes, having an average body weight of 20 grams. The test compounds were administered as a trituration in 1% methyl cellulose (0.5 ml/10 g of animal) by means of an oesophageal tube. The calculation of the LD50 values was effected according to the method of LITCHFIELD and WILCOXON [J. Pharmacol. Exp. Ther., 96. 99 (1949)], based on the percentage of animals which died within 14 days after administration of different doses.

methemoglobin = assay: Determination of the level of methemoglobin in the cat; format: in vivo; conditions: oesophageal tube
Procedure: The test substances were administered to cats of both sexes having an average body weight of 2.5 kg, as a trituration in 1% methyl cellulose using an oesophageal tube (2 ml/kg; the oesophageal tube was cleared in situ by aqua bidestillata). After a single application blood-tests were taken by heart-punctuation at different times, that is, at 3 hours, 5 hours, 24 hours, and 48 hours after administration. The photometric registration of the spectrum of hemoglobin as well as the determination of the content of hemoglobin in comparison to controls were effected according to the method of LEMBERG and LEGGE [Hematin Compounds and Bile Pigments, Interscience Publishers, New York (1949)].

[4] = literature: W. Nimmich, Pharmazie, 19, (4), 281 (1964); cited from earlier work
[5] = male Chbb:NMRI (SPF)-mice, oesophageal tube, hot plate 52° C.
[6] = Chbb:THOM-rats, oesophageal tube
[7] = male Chbb:THOM-rats, oesophageal tube, 45 minutes after administration
[8] = 100 mg/kg, 3 hours after administration
[9] = 100 mg/kg, 5 hours after administration
[10] = 100 mg/kg, 24 hours after administration
[11] = 200 mg/kg, 3 hours after administration
[12] = 200 mg/kg, 5 hours after administration
[13] = 200 mg/kg, 24 hours after administration
[14] = 50 mg/kg, 3 hours after administration
[15] = 50 mg/kg, 5 hours after administration
[16] = 50 mg/kg, 24 hours after administration

## Cc1ccc2[nH]c(=O)sc2c1 [C, 6-Methyl-benzothiazol-2(3H)-one]
[1]; [5]
  ED100: 144 mg/kg
[2]; [6]
  ED (-1.5 degC): 30.9 mg/kg
[3]; [7]
  ED50: 54.4 mg/kg
Acute toxicity in mice
  LD50 at 336 h: 2160 mg/kg
methemoglobin; [8]
  Average value of methemoglobin: 4.0 % of total hemoglobin
methemoglobin; [9]
  Average value of methemoglobin: 2.4 % of total hemoglobin
methemoglobin; [10]
  Average value of methemoglobin: 0.1 % of total hemoglobin
methemoglobin; [11]
  Average value of methemoglobin: 13.6 % of total hemoglobin
methemoglobin; [12]
  Average value of methemoglobin: 13.7 % of total hemoglobin
methemoglobin; [13]
  Average value of methemoglobin: 0.4 % of total hemoglobin

## CCOc1ccc2[nH]c(=O)sc2c1 [A, 6-Ethoxy-benzothiazol-2(3H)-one]
[1]; [5]
  ED100: 154 mg/kg
[2]; [6]
  ED (-1.5 degC): 84.3 mg/kg
[3]; [7]
  ED50: 64.3 mg/kg
Acute toxicity in mice
  LD50 at 336 h: 1200 mg/kg
methemoglobin; [14]
  Average value of methemoglobin: 0.3 % of total hemoglobin
methemoglobin; [15]
  Average value of methemoglobin: 0.5 % of total hemoglobin
methemoglobin; [16]
  Average value of methemoglobin: 1.1 % of total hemoglobin
methemoglobin; [8]
  Average value of methemoglobin: 0.4 % of total hemoglobin
methemoglobin; [9]
  Average value of methemoglobin: 0.1 % of total hemoglobin
methemoglobin; [10]
  Average value of methemoglobin: 0.3 % of total hemoglobin
methemoglobin; [11]
  Average value of methemoglobin: 1.0 % of total hemoglobin
methemoglobin; [12]
  Average value of methemoglobin: 0.4 % of total hemoglobin
methemoglobin; [13]
  Average value of methemoglobin: 0.5 % of total hemoglobin

## CCOc1ccc(NC(C)=O)cc1 [D, Phenacetin, reference compound]
[1]
  ED100: 328 mg/kg
[2]
  ED (-1.5 degC): 34.4 mg/kg
[2]; rat, in vivo
  Antipyretic activity (in words): an antipyretic activity
[3]
  ED50: 274 mg/kg
Acute toxicity in mice
  LD50 at 336 h: 1460 mg/kg
methemoglobin; 25 mg/kg, 3 hours after administration
  Average value of methemoglobin: 1.9 % of total hemoglobin
methemoglobin; 25 mg/kg, 5 hours after administration
  Average value of methemoglobin: 0.4 % of total hemoglobin
methemoglobin; [14]
  Average value of methemoglobin: 19.6 % of total hemoglobin
methemoglobin; [15]
  Average value of methemoglobin: 9.8 % of total hemoglobin
methemoglobin; [16]
  Average value of methemoglobin: 0.5 % of total hemoglobin
methemoglobin; [8]
  Average value of methemoglobin: 32.0 % of total hemoglobin
methemoglobin; [9]
  Average value of methemoglobin: 35.8 % of total hemoglobin
methemoglobin; [10]
  Average value of methemoglobin: 0.5 % of total hemoglobin
methemoglobin; [11]
  Average value of methemoglobin: 36.0 % of total hemoglobin
methemoglobin; [12]
  Average value of methemoglobin: 46.6 % of total hemoglobin
methemoglobin; [13]
  Average value of methemoglobin: 15.4 % of total hemoglobin
methemoglobin; 200 mg/kg, 48 hours after administration
  Average value of methemoglobin: 1.1 % of total hemoglobin

## O=c1[nH]c2ccccc2s1 [Example 2, Benzothiazol-2(3H)-one]
[4]
  Antimicrobial and fungistatic activity: antimicrobial and fungistatic acitivity

## COc1ccc2nc(O)sc2c1 [B, 6-Methoxy-benzothiazol-2(3H)-one]
[1]; [5]
  ED100: 122 mg/kg
[2]; [6]
  ED (-1.5 degC): 66.8 mg/kg
[3]; [7]
  ED50: 142 mg/kg
Acute toxicity in mice
  LD50 at 336 h: 1280 mg/kg
methemoglobin; [8]
  Average value of methemoglobin: 4.6 % of total hemoglobin
methemoglobin; [9]
  Average value of methemoglobin: 3.5 % of total hemoglobin
methemoglobin; [10]
  Average value of methemoglobin: 0.0 % of total hemoglobin
methemoglobin; [11]
  Average value of methemoglobin: 8.1 % of total hemoglobin
methemoglobin; [12]
  Average value of methemoglobin: 11.7 % of total hemoglobin
methemoglobin; [13]
  Average value of methemoglobin: 0.0 % of total hemoglobin
